# Columns and labels:
# [1] = Triple helix melting point (Tm) by circular dichroism at 225 nm; type: physicochemical; settings: for melting point: Example 3; for Tm (° C.): triple helix melting
# Method: (§1) FIGS. 5A, 5B, 5C, and 5D show the thermal denaturation of fully assembled CHPs and subsequent cooling to initial temperature. Samples were heated at 1° C./min from their initial temperature final temperature of 90° C. Sample was then cooled at 1° C./min to the starting temperature. (A) Thermal denaturation and partial reassembly of CHP CF-6d (150 μM) monitored at 225 nm. Sample was measured from 4° C. to 90° C. (B) Thermal denaturation and partial reassembly of CHP […] (75 μM, corresponding to 150 μM strand concentration) monitored at 225 nm. Sample was measured from 4° C. to 90° C. (C) Thermal denaturation and partial reassembly of CHP CF-9 (150 μM) monitored at 225 nm. Sample was measured from 10° C. to 90° C. (D) Thermal denaturation and partial reassembly of CHP CF-9d (75 μM, corresponding to 150 μM strand concentration) monitored at 225 nm. Sample was measured from 10° C. to 90° C.
# FIGS. 11A and 11B show the First Derivative of mean residue ellipticity (MRE) at 225 nm in CD. […] There is no significant change in melting point between the monomeric and dimeric forms of the same peptide.
# (§2) Circular Dichroism: Circular Dichroism (CD) was measured for all peptides at 225 nm. Melting curves were taken on peptides between 10 and 80° C. at a heating rate of 0.5° C./min, with pauses at each 1° C. Refolding experiments were performed after peptide solutions were incubated at 4° C. for at least 12 hours. Concentrations were normalized to strand concentration.
# [2] = CD refolding (triple helix assembly) at 10° C. monitored at 225 nm; type: physicochemical; settings: for folded after 2 hours: CD refolding
# Method: Conversion was assumed to be at 100% after 96 h incubation at 4° C., and max trimer concentration was measured via CD ellipticity at 10° C. Samples were preheated to 80° C. in the sample cuvette for 10 min before being transferred directly to the sample holder held at a constant 10° C. Sample measurement began immediately. Initial time point for analysis was determined by measuring time for a blank (lx PBS) to thermally equilibrate in these conditions.
# For all peptides, conversion was assumed to be at 100% after 96 h incubation at 4° C., and max trimer concentration was measured via CD ellipticity at 10° C. Samples were preheated to 80° C. in the sample cuvette for 10 min before being transferred directly to the sample holder held at a constant 10° C. Sample measurement began immediately. Initial time point for analysis was determined by measuring time for a blank (1×PBS) to thermally equilibrate in these conditions. This was set as the zero point for all peptides, as the large jump in CD due to temperature makes the initial jump irresolvable. (A) Rate of assembly of CHP 9 (60, 30, and 15 μM), over 2 h, monitored at 225 nm. (B) Rate of assembly of CHP 9d (30, 15, and 7.5 μM, corresponding to same CHP strand concentration from panel A), over 2 h, monitored at 225 nm. (C) Rate of assembly of CHP 6 (150 and 75 μM), over 2 h, monitored at 225 nm.
# FIGS. 12A and 12B show CD refolding at 10° C. of CMPs monitored at 225 nm. CMPs were heated to 80° C. for 5 minutes before being placed into the CD and initial 2 min of monitored data was removed to eliminate thermal transition. Signal was normalized to that of a fully folded peptide.
# as §2
# [3] = CD thermal denaturation and cooling gradient 90 to 4° C., refolding; type: physicochemical; settings: cooling 1° C./min from 90° C.
# Method: as §1
# The dimeric CHPs can also form their triple helices much more readily during slow cooling when compared to their monomeric counterparts. After thermal denaturation and heating to 90° C., the peptides were exposed to a decreasing thermal gradient from 90 to 4° C. (1° C./min) during which the ellipticity at 225 nm was monitored. During these cooling gradients, the dimeric CHPs began refolding at a higher temperature than the monomers with the same number of repeat units. […]
# [4] = test system: crosslinked gelatin films; test: Binding of CF-labelled CHPs to crosslinked gelatin films at 37° C. with and without preheating; parameters: species or system porcine; settings: 20 μM, 37° C. overnight, PBS wash 20 h, FIG. 6C
# Method: FIGS. 3A and 3B show the affinity of CHPs to gelatin films as monitored by fluorescence of conjugated CF fluorophore (492 ex, 533 em). (A) Fluorescence of CHPs bound to crosslinked gelatin after incubation at 37° C. overnight with no workup. (B) Fluorescence of CHPs remaining in crosslinked gelatin after incubation at 37° C. overnight without preheating, followed by washing with 1×PBS at 37° C. (20 h).
# (A) Fraction of peptide remaining in a crosslinked gelatin film after 17 h at 25° C. (10 total washes). Values are normalized to fluorescence remaining in wells after 6 washes at 4° C. (>95% removal of CHPs 9r, 6r, and 5r). All washes performed in 1×PBS. (B) CHPs (15 μM) premixed into 10% porcine gelatin and preheated to 80° C. (10 min) before being added to a 96 well plate. Excess CHP-gelatin mixture was removed, then the premix was incubated at 4° C. for 2 hours. Wells were washed at 4° C., 5 times (>95% removal of CHPs 9r, 6r, and 5r). Wells were then washed for 2 hours (6 washes total) at 25° C. to monitor CHP remaining in the well. (C) Fluorescence of CHPs remaining in crosslinked gelatin after incubation at 37° C. overnight without preheating, followed by washing with 1×PBS at 37° C. (20 h). (D) Fluorescence of CHPs remaining in crosslinked gelatin after incubation at 37° C. overnight (80° C. preheating, 10 min), followed by washing with 1×PBS at 37° C. (20 h).
# Dimeric CHPs were assessed for their ability to bind to collagen strands in crosslinked gelatin films. CHP solutions (20 μM in PBS) were added directly to the crosslinked gelatin films. For heated experiments, CHPs were preheated to 80° C. for 10 minutes before addition. Peptides were allowed to fully equilibrate with the gel at 37° C. overnight before being exposed to repeated washes (4×, PBS) at 37° C. to fully remove any non-specifically bound peptide and to determine binding level at body temperature. To measure retention, peptides were bound as previously described, but were subsequently washed with PBS 37° C. (5×1 h, 1×12 h) to measure retention within the gelatin films. […] Additionally, after a period of 20 hours, higher level of the dimeric CHP remained in the gelatin compared to the monomeric CHP.
# A major limitation of the use of CHP in vivo, is the requirement of the triple helix to be fully disassembled before being injected. […] For this test, peptide solutions were allowed to warm to room temperature before being added (50 μL, 20 μM) to previously prepared crosslinked gelatin films. Solutions were then incubated at 37° C. overnight before removing the solution. Wells were washed at 37° C. with PBS (20 h) to determine binding. Preheated samples were prepared and incubated in the same way, but with preheating (80° C., 10 min) before being added to the crosslinked gelatin wells.
Substance,melting point [1] [°C],Tm (° C.) ([1]; Table 1),Tm (° C.) ([1]; Table 2),"refolding after two hours of incubation ([2]; 10° C., same strand concentration)",folded after 2 hours ([2]; 75 μM) [%],temperature below the reported Tm until which no significant refolding was observed [3],binding to gelatin wells at 37° C. without preheating [4],folded after 2 hours ([2]; 60 μM) [%]
(GPO)6 [compound 6],37,37 (SEQ ID NO: 59) ° C.,37 (SEQ ID NO: 59) ° C.,did not reach its half maximal refolding after two hours,28,approximately 10 °C,do not have a strong enough affinity to the gelatin to bind effectively at physiologic temperature,–
(GPO)9 [compound 9],68,68 (SEQ ID NO: 56) ° C.,68 (SEQ ID NO: 56) ° C.,–,–,~15 °C,unable to bind significantly without preheating,40

# — patent US11684675B2, “Dimeric collagen hybridizing peptides and methods of using” (University of Utah Research Foundation, priority 2015, dated 2023)
